In ChEMBL document CHEMBL1144322, “Structure-based design of potent and selective inhibitors of collagenase-3 (MMP-13)” (Bioorg Med Chem Lett, 2005) one finds Ki data, which are given here for 16 compounds.

Test [1] deals with T1, Collagenase 3 (Homo sapiens, UniProt P45452). Nature of the test: Binding affinity for matrix metalloprotease 13.
The target in test [2] is 72 kDa type IV collagenase (Homo sapiens, UniProt P08253). Nature of the test: Inhibition of matrix metalloprotease-2.
Test [3] concerns the target Matrix metalloproteinase-9 (Homo sapiens, UniProt P14780). Nature of the test: Inhibition of matrix metalloprotease-9.
Test [4] has as its target Disintegrin and metalloproteinase domain-containing protein 17 (Homo sapiens, UniProt P78536). Nature of the test: Inhibition of TNF-alpha converting enzyme (TACE, ADAM17).
Another test concerns the target Stromelysin-1 (Homo sapiens, UniProt P08254). Kind of test: Inhibition of matrix metalloprotease-3.
In a further test the target is T2, Interstitial collagenase (Homo sapiens, UniProt P03956).
T2 sequence (P03956 whole entry): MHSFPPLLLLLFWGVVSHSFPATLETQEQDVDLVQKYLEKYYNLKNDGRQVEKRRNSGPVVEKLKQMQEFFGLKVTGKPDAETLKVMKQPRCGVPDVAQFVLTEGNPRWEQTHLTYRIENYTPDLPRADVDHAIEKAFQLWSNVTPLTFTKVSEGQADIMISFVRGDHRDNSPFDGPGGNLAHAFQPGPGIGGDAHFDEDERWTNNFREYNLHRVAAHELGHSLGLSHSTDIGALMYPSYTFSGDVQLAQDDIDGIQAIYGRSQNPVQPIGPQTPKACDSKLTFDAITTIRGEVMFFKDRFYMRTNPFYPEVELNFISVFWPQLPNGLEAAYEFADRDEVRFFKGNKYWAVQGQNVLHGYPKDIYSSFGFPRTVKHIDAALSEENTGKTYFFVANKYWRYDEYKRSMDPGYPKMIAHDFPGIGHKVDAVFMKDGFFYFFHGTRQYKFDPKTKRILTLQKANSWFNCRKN
Kind of test: Inhibition of matrix metalloprotease-1.

Test [5] has as its target T1, Collagenase 3. Nature of the test: Inhibition of matrix metalloprotease-13.

Chain of Disintegrin and metalloproteinase domain-containing protein 17 (P78536 whole entry, the tested form may be a part): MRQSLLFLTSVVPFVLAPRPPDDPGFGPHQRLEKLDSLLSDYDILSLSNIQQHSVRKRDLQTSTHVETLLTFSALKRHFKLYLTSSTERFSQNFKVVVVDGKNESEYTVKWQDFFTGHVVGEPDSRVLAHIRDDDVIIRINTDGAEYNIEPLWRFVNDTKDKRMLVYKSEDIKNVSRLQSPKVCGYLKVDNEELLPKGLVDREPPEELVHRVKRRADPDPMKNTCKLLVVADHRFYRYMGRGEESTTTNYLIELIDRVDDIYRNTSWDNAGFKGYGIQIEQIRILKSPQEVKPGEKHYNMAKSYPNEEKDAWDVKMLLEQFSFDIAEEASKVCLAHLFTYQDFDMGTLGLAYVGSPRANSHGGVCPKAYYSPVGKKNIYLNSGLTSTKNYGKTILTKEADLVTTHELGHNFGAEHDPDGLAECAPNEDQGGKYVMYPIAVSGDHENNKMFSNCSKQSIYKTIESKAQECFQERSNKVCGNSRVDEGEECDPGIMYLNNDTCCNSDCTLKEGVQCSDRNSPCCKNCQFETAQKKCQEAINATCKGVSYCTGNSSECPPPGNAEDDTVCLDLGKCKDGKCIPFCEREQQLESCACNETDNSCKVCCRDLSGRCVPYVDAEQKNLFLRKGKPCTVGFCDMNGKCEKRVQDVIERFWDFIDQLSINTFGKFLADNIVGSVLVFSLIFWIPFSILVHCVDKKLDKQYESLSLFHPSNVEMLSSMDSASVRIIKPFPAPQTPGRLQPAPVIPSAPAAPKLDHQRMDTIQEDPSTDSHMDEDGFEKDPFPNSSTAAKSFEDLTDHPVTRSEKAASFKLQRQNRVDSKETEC
Chain of Stromelysin-1 (P08254 whole entry): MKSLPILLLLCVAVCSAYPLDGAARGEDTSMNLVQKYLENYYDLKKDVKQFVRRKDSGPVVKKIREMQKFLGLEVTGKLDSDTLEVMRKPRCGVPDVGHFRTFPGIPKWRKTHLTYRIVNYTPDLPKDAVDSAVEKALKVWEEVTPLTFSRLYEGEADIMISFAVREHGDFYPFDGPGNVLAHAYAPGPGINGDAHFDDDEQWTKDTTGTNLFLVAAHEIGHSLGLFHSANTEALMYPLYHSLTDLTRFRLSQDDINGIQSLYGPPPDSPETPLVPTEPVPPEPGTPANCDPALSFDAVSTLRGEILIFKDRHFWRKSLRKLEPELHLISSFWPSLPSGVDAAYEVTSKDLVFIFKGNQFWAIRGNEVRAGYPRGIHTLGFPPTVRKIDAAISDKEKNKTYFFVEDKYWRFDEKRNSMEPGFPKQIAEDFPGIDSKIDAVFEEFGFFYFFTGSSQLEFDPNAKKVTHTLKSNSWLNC
Chain of 72 kDa type IV collagenase (P08253 whole entry): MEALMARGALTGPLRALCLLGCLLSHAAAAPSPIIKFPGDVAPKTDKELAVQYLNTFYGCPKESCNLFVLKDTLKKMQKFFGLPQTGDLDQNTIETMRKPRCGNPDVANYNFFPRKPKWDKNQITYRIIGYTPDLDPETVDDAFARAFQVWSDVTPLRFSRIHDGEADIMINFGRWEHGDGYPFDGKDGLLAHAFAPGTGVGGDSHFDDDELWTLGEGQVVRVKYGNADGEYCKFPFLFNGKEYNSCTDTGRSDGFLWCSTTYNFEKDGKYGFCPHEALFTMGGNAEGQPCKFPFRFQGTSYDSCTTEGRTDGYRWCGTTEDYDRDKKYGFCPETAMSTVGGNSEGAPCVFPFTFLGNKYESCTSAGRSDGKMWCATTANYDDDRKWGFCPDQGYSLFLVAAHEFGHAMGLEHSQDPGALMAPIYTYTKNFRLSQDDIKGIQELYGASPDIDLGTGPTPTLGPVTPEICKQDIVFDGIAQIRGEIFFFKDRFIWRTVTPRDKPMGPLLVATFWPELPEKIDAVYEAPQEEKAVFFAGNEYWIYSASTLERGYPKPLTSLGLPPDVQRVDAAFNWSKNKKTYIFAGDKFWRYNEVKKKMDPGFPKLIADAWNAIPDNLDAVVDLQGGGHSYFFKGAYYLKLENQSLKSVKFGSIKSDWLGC
Chain of Matrix metalloproteinase-9 (P14780 whole entry, the tested form may be a part): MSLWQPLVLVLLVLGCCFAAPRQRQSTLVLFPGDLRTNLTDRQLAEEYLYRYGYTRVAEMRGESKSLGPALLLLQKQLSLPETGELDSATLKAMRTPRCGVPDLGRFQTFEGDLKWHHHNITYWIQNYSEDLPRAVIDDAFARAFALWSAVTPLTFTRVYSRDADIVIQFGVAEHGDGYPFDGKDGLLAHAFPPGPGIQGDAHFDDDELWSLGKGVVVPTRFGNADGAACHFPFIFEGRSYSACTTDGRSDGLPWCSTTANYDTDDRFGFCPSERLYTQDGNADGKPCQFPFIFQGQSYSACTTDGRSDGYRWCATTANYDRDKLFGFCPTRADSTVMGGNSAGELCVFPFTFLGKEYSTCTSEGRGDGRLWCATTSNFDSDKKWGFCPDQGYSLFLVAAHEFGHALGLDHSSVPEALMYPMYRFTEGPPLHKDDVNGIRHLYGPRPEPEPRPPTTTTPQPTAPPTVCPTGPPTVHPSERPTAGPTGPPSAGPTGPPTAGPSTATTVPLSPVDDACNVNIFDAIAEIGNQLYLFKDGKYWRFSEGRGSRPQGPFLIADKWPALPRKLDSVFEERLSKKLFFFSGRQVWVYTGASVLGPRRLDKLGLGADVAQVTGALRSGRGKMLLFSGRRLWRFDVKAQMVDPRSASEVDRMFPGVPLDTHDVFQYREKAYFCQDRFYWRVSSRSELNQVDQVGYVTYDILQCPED

Regarding `CCC1CC(=O)N(c2ccc(Oc3ccccc3)cc2)C12C(=O)NC(=O)NC2=O` (stereo in doubt), the Ki on Collagenase 3 [1] was 0.54 nM; in test [2], 0.4 nM; in test [3], 0.87 nM; in test [4], > 1000 nM; on Stromelysin-1, 92 nM; at Interstitial collagenase, > 5000 nM.
For the compound `O=C1NC(=O)C2(CCC(=O)N2c2ccc(Oc3ccccc3)cc2)C(=O)N1`, the Ki was 1.6 nM in test [2]; 4.7 nM in test [3]; > 1000 nM in test [4]; 4500 nM on Stromelysin-1; > 5000 nM at Interstitial collagenase; 4.7 nM at Collagenase 3 [5].
On Collagenase 3 [5], `O=C1NC(=O)C2(CCC(=O)N2c2ccc(Oc3cccc(Cl)c3)cc2)C(=O)N1` yielded a Ki of 54 nM.
Consider `COC(=O)c1ccc(Oc2ccc(N3C(=O)CCC34C(=O)NC(=O)NC4=O)cc2)cc1`, for which the Ki was 4.7 nM in test [2]; 1.2 nM in test [3]; > 1000 nM in test [4]; 1300 nM at Stromelysin-1; > 5000 nM at Interstitial collagenase; 4.2 nM at Collagenase 3 [5].
Take `O=C1NC(=O)C2(CCC(=O)N2c2ccc(Oc3ccc(Oc4ccccc4)cc3)cc2)C(=O)N1`: the Ki in test [2] was 1.8 nM; in test [3], 1.9 nM; in test [4], > 1000 nM; at Stromelysin-1, 110 nM; on Interstitial collagenase, > 5000 nM; on Collagenase 3 [5] it was 0.33 nM.
Turning to `CCC1CC(=O)N(c2ccc(Oc3ccccc3)cc2)C12C(=O)NC(=O)NC2=O` (single isomer, unassigned), the Ki is 4.1 nM at Collagenase 3 [1]; 1.7 nM in test [2]; 7.2 nM in test [3]; > 1000 nM in test [4]; 1200 nM at Stromelysin-1; > 5000 nM on Interstitial collagenase.
`O=C1NC(=O)C2(CCC(=O)N2c2ccc(Br)cc2)C(=O)N1` returned a Ki on Collagenase 3 [5] of 130 nM.
As to `O=C1NC(=O)C2(CCC(=O)N2c2ccccc2)C(=O)N1`, the affinity on Collagenase 3 [5], expressed as Ki, was 2200 nM. Against the preceding compound, the Ki is about 17-fold higher.
As to `O=C1NC(=O)C2(CCC(=O)N2c2ccc(OCc3ccccc3)cc2)C(=O)N1`, the Ki at Collagenase 3 [5] is 1100 nM. Against the preceding compound, the Ki is about 2-fold lower.
The same measure, in the same setting: next, `O=C1NC(=O)C2(CCC(=O)N2c2ccc(-c3ccccc3)cc2)C(=O)N1`: 934 nM; `COc1cccc(Oc2ccc(N3C(=O)CCC34C(=O)NC(=O)NC4=O)cc2)c1`: 1.9 nM.
On to `O=C1NC(=O)C2(CCC(=O)N2c2ccc(Oc3ccc(C(=O)O)cc3)cc2)C(=O)N1`, for which the Ki was 0.23 nM in test [2]; 0.72 nM in test [3]; > 1000 nM in test [4]; 3200 nM at Stromelysin-1; > 5000 nM at Interstitial collagenase; 2.7 nM on Collagenase 3 [5].
In turn, `O=C1NC(=O)C2(CCC(=O)N2c2ccc(Oc3ccc4c(c3)OCO4)cc2)C(=O)N1` yielded a Ki at Collagenase 3 [5] of 5.8 nM. This counts as single-digit nanomolar.
In turn, `COc1ccncc1Oc1ccc(N2C(=O)CCC23C(=O)NC(=O)NC3=O)cc1` displayed a Ki at Collagenase 3 [5] of 25 nM. This Ki lies about 4.3-fold higher than the previous one.
Same read-out and setting: next, `COc1ccccc1Oc1ccc(N2C(=O)CCC23C(=O)NC(=O)NC3=O)cc1`: 110 nM.
As for `O=C1NC(=O)C2(CCC(=O)N2c2ccc(Oc3ccc(Cl)cc3)cc2)C(=O)N1`, the Ki was 0.43 nM in test [2]; 0.72 nM in test [3]; > 1000 nM in test [4]; 430 nM at Stromelysin-1; > 5000 nM on Interstitial collagenase; 0.95 nM at Collagenase 3 [5].
